According to paper PMC3871601, “Potential Cooperations between Odorant-Binding Proteins of the Scarab Beetle Holotrichia oblita Faldermann (Coleoptera: Scarabaeidae)” (PLoS ONE, 2013):
pIC50, pKd, pKi: −log10 of the molar value. Like-named read-outs stand apart in the source and are kept apart here.

Columns and labels:
[1] = tested on: HoblOBP2 and HoblOBP4 mixtures; assay: Competitive binding assay with binary protein mixture OBP2-OBP4; design: species or system Holotrichia oblita; conditions: HoblOBP2 and HoblOBP4 equimolar mixture and 1-NPN 2 µM, ligand 4–40 µM
Method: (§1) It is well known that the concentration of OBPs (also likely CSPs) in the sensillum lymph of the insect is extremely high (reportedly 10 mM). A hypothesis has been proposed that OBPs (or CSPs) homodimers or heterodimers might form. Thus, all binary potential intersections with four HoblOBPs and two HoblCSPs were tested in competitive binding assays to determine the existence of dimers. These experiments assumed that the protein was 100% active, a stoichiometric ratio between the protein and ligand was 1:1 at saturation and the two proteins were present in equimolar amounts. The binding curves and Scatchard plots of OBP3 and OBP4 mixture or CSP1 and CSP2 mixture were consistent with the functions of the individual proteins. However, the binding curve of the OBP2 and OBP4 mixture or OBP1 and OBP2 mixture presented a different tendency from those obtained with the individual proteins. […] Thus, we speculated that the decreased binding velocity was the main cause underlying this phenomenon. […] Such binding of the OBP2 and OBP4 mixture or OBP1 and OBP2 mixture in H. oblita was consistent with the OBP1 and OBP4 mixture in A. gambiae. In particular, some experiments also indicated interactions between OBP1 and OBP4 in A. gambiae. Thus, the hypothesis on a potential interaction between OBP2 and OBP4 (or OBP1 and OBP2) in H. oblita was proposed.
(§2) Figure 8 Competitive binding curves of representative ligands to binary protein mixtures OBP2-OBP4 and OBP1-OBP2 in H. oblita. The chemical structures of the ligands are shown on the right. A mixture of the proteins (equimolar amounts) and 1-NPN with both concentration of 2 µM in Tris-buffer was titrated with 1 mM solution of each competing ligand to final concentrations of 4–40 µM.
(§3) The 2 µM protein solution was dissolved in 50 mM Tris-HCl buffer with pH 7.4, and the ligands were dissolved in chromatographically pure methanol as a 1 mM stock solution. 1-NPN was dissolved in chromatographically pure methanol as a 1 mM stock solution. The protein solution was titrated to measure the protein’s affinity for the probe by adding aliquots of 1-NPN stock solution to final concentrations of 2 to 20µM.

HoblOBP4 [2] = molecular target: T1, HoblOBP4 (Holotrichia oblita, UniProt G9BWQ8); assay: biochemical; type: binding; conditions: for Affinity (in words): HoblOBP4 alone
T1 sequence (G9BWQ8 entry or part of it): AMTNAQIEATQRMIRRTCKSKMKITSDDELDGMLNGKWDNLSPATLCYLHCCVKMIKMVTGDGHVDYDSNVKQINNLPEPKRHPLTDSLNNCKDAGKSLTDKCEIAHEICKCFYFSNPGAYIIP
Method: (§4) N-phenyl-1-naphthylamine (1-NPN) was selected as a probe to measure the affinity of the 1-NPN fluorescent ligand to proteins. A 1-cm light path quartz cuvette was used, and the fluorescence spectra were recorded on a Lengguang 970 CRT spectrofluorimeter (Shanghai Jingmi, China) at room temperature in a right angle configuration. The parameter selection was such that the slit widths for both excitation and emission were 10 nm. 1-NPN was excited at 337 nm and the emission spectra were recorded between 350 and 550 nm. Spectra were recorded using high-speed scanning.
(§5) The 2 µM protein solution was dissolved in 50 mM Tris-HCl buffer with pH 7.4, and the ligands were dissolved in chromatographically pure methanol as a 1 mM stock solution. 1-NPN was dissolved in chromatographically pure methanol as a 1 mM stock solution.
(§6) To determine the dissociation constants, the intensity values corresponding to the maximum fluorescence emission were plotted against free ligand concentrations. Assuming that the protein was 100% active and that the stoichiometric ratio between the protein and ligand was 1:1 at saturation, the bound ligand was determined from the fluorescence intensity values. The curves were then linearized using Scatchard plots. The K1-NPN values were estimated using GraphPad Prism 5 Software by nonlinear regression for a unique binding site. The dissociation constants of the competitors (Ki) were calculated from the corresponding IC50 values using the following equation: Ki = [IC50]/1+[1-NPN]/K1-NPN. […] [1-NPN] represented the free concentration of 1-NPN, and K1-NPN represented the dissociation constant of the complex protein/1-NPN [76].

HoblOBP3 [3] = molecular target: T2, HoblOBP3 (Holotrichia oblita, UniProt G9BWQ7); assay: biochemical; type: binding
T2 sequence (G9BWQ7 entry or part of it): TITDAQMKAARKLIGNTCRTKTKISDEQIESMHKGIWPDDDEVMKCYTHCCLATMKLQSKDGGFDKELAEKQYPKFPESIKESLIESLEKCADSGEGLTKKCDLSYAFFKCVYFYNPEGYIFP
Method: as §4, §5, §6

HoblOBP2 = tested on: HoblOBP2; design: method as in PMID 21852709; conditions: HoblOBP2 alone; ref [13]; cited from earlier work
[4] = tested on: HoblOBP1 and HoblOBP2 mixtures; assay: Competitive binding assay with binary protein mixture OBP1-OBP2; design: species or system Holotrichia oblita; conditions: HoblOBP1 and HoblOBP2 equimolar mixture and 1-NPN 2 µM, ligand 4–40 µM; compared to either protein alone
Method: as §1, §2, §3

HoblOBP1 = tested on: HoblOBP1; design: method as in PMID 21852709; conditions: HoblOBP1 alone; ref [13]; cited from earlier work
HoblOBP4 [5] = molecular target: T1, HoblOBP4; assay: Binding curve of 1-NPN and Scatchard plot, HoblOBP4; conditions: HoblOBP4 2 µM in Tris-buffer, 1-NPN 2–20 µM; read-out: Dissociation constant of 1-NPN
Method: as §4, with “scanning. Several types of compounds purchased from Sigma-Aldrich (Chemie Gmbh, Steinheim, Germany) were identified in the binding assays, and their purities were > 97% (Table 1). […]” for “scanning.”
(§7) To determine the dissociation constants, the intensity values corresponding to the maximum fluorescence emission were plotted against free ligand concentrations. Assuming that the protein was 100% active and that the stoichiometric ratio between the protein and ligand was 1:1 at saturation, the bound ligand was determined from the fluorescence intensity values. […] The dissociation constants of the competitors (Ki) were calculated from the corresponding IC50 values using the following equation: Ki = [IC50]/1+[1-NPN]/K1-NPN. […]

HoblOBP3 [6] = molecular target: T2, HoblOBP3; assay: Binding curve of 1-NPN and Scatchard plot, HoblOBP3; conditions: HoblOBP3 2 µM in Tris-buffer, 1-NPN 2–20 µM; read-out: Dissociation constant of 1-NPN
Method: as §4, with “scanning. Several types of compounds purchased from Sigma-Aldrich (Chemie Gmbh, Steinheim, Germany) were identified in the binding assays, and their purities were > 97% (Table 1). […]” for “scanning.”
as §7

[7] = pH 7.4, read-out: Int (fluorescence intensity as percent of the initial fluorescence)
[8] = HoblOBP4, dash = IC50 exceeded 50 µM, read-out: IC50 (dash)
[9] = HoblOBP4, dash = ligand whose IC50 exceeded 50 µM, Ki not given, read-out: Ki (dash)
[10] = pH 7.4, HoblOBP4, at the ligand concentration 24 µM, protein and 1-NPN both 2 µM, read-out: Int (fluorescence intensity as percent of the initial fluorescence)
[11] = HoblOBP3, dash = IC50 exceeded 50 µM, read-out: IC50 (dash)
[12] = HoblOBP3, dash = ligand whose IC50 exceeded 50 µM, Ki not given, read-out: Ki (dash)
[13] = pH 7.4, HoblOBP3, at the ligand concentration 24 µM, protein and 1-NPN both 2 µM, read-out: Int (fluorescence intensity as percent of the initial fluorescence)
[14] = HoblOBP4, calculated from IC50 and K1-NPN, read-out: Ki
[15] = HoblOBP4, protein and 1-NPN both 2 µM, ligand titrated 2–50 µM, read-out: IC50 (concentration of ligand halving the initial fluorescence intensity)

SMILES | pIC50 (HoblOBP4 [2]) | pKi (HoblOBP4 [2]) | activity at 24 µM (HoblOBP4 [2]; [7]) [%] | pIC50 (HoblOBP3 [3]) | pKi (HoblOBP3 [3]) | activity at 24 µM (HoblOBP3 [3]; [7]) [%] | Affinity (in words) (HoblOBP2) | activity at 24 µM (HoblOBP4 [2]; [10]) [%] | pIC50 (HoblOBP3 [3]; [11]) | pKi (HoblOBP3 [3]; [12]) | activity at 24 µM (HoblOBP3 [3]; [13]) [%] | also measured
O=C/C=C/c1ccccc1 [Cinnamaldehyde] | 5.05 | 5.18 | 36 | 4.34 | 4.52 | 64 | low-afﬁnity or non-afﬁnity | – | – | – | – | Affinity (in words) [1]: good affinity; Affinity (in words) (HoblOBP4 [2]): good afﬁnity
CC(=O)/C=C/C1=C(C)CCCC1(C)C [β-Ionone] | 4.82 | 4.96 | 42 | 5.10 | 5.28 | 36 | good afﬁnity | – | – | – | – | Affinity (in words) [1]: enhanced affinity; Affinity (in words) (HoblOBP4 [2]): good afﬁnity
CCCCCCC=O [1-Heptanal] | – | – | – | – | – | – | low-afﬁnity or non-afﬁnity | 64 | < 4.30 | < 4.30 | 65 | Affinity (in words) [4]: enhanced affinity; pIC50 (HoblOBP4 [2]; [8]): < 4.30; pKi (HoblOBP4 [2]; [9]): < 4.30; Affinity (in words) (HoblOBP1): low-afﬁnity or non-afﬁnity
CCC/C=C/CO [trans-2-Hexenol] | 4.62 | 4.75 | – | < 4.30 | < 4.30 | – | low-afﬁnity or non-afﬁnity | 51 | – | – | 82 | Affinity (in words) [4]: enhanced affinity; Affinity (in words) (HoblOBP1): low-afﬁnity or non-afﬁnity
C=C[C@](C)(O)CCC=C(C)C [R-(-)-Linalool] | 4.70 | 4.83 | 46 | < 4.30 | < 4.30 | 73 | low-afﬁnity or non-afﬁnity | – | – | – | – | Affinity (in words) [4]: enhanced affinity; Affinity (in words) (HoblOBP1): low-afﬁnity or non-afﬁnity
c1ccc(Nc2cccc3ccccc23)cc1 [1-NPN, N-phenyl-1-naphthylamine] | – | – | – | – | – | – | – | – | – | – | – | pKd (HoblOBP4 [5]): 5.56; pKd (HoblOBP3 [6]): 5.73
CC1=CC[C@@H](C(C)(C)O)CC1 [α-Terpineol] | 4.45 | 4.58 | 53 | < 4.30 | < 4.30 | 71 | low-afﬁnity or non-afﬁnity | – | – | – | – | Affinity (in words) [4]: enhanced affinity; Affinity (in words) (HoblOBP1): low-afﬁnity or non-afﬁnity
CC1=C(/C=C/C(C)=C/C=C/C(C)=C/CO)C(C)(C)CCC1 [Retinol] | – | – | – | – | – | – | low-afﬁnity or non-afﬁnity | – | < 4.30 | < 4.30 | – | Affinity (in words) [1]: good affinity; pIC50 (HoblOBP4 [2]; [8]): < 4.30; pKi (HoblOBP4 [2]; [9]): < 4.30; Affinity (in words) (HoblOBP4 [2]): no afﬁnity
CCCCC=O [1-Pentanal] | – | – | – | – | – | – | – | 44 | – | – | 65 | pKi (HoblOBP4 [2]; [14]): 4.93; pIC50 (HoblOBP4 [2]; [15]): 4.80; pKi (HoblOBP3 [3]; HoblOBP3, calculated from IC50 and K1-NPN, read-out: Ki): 4.57; pIC50 (HoblOBP3 [3]; HoblOBP3, protein and 1-NPN both 2 µM, ligand titrated 2–50 µM, read-out: IC50 (concentration of ligand halving the initial fluorescence intensity)): 4.39
CC(C)(C)C1CCC(O)CC1 (stereo not drawn) [4-tert-Butyl cyclohexanol] | – | – | – | – | – | – | – | 49 | < 4.30 | < 4.30 | 68 | pKi (HoblOBP4 [2]; [14]): 4.85; pIC50 (HoblOBP4 [2]; [15]): 4.72
O=CCc1ccccc1 [Benzeneacetaldehyde] | – | – | – | – | – | – | – | – | < 4.30 | < 4.30 | – | pIC50 (HoblOBP4 [2]; [8]): < 4.30; pKi (HoblOBP4 [2]; [9]): < 4.30
CCOC(=O)CN [Glycine ethyl ester] | – | – | – | – | – | – | – | 50 | < 4.30 | < 4.30 | 76 | pIC50 (HoblOBP4 [2]; [15]): 4.62
C=CCc1ccc(O)c(OC)c1 [Eugenol] | < 4.30 | < 4.30 | 57 | < 4.30 | < 4.30 | 97 | low-afﬁnity or non-afﬁnity | – | – | – | – | Affinity (in words) [1]: good affinity; Affinity (in words) (HoblOBP4 [2]): no afﬁnity
CC[C@H](C)[C@H](N)C(=O)OC [L-Isoleucine methyl ester] | – | – | – | – | – | – | – | 49 | < 4.30 | < 4.30 | 68 | pKi (HoblOBP4 [2]; [14]): 4.75; pIC50 (HoblOBP4 [2]; [15]): 4.62
